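Cultured in 96-well plates, cells were exposed to test compound for 48 hours across five concentrations. Here, GI50 denotes the concentration required for 50% inhibition of growth. At the TGI there is no net growth.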
Key:
Assay in all cases: NCI anticancer screen, dose series, 48 h
CAKI-1 renal = system: CAKI-1 renal
DU-145 prostate = system: DU-145 prostate
NCI-H23 lung = system: NCI-H23 lung
UACC-257 melanoma = system: UACC-257 melanoma
SF-295 CNS = system: SF-295 CNS
HOP-62 NSCLC = system: HOP-62 NSCLC
SK-MEL-2 melanoma = system: SK-MEL-2 melanoma
HCC-2998 colon = system: HCC-2998 colon
MDA-N = system: MDA-N
BT-549 breast = system: BT-549 breast
EKVX NSCLC = system: EKVX NSCLC

## COc1cc(OC)cc(Oc2nc3ccccc3nc2C(F)(F)F)c1
CAKI-1 renal
  TGI: > 100 µM
DU-145 prostate
  TGI: > 100 µM
NCI-H23 lung
  TGI: > 100 µM
UACC-257 melanoma
  TGI: > 100 µM
SF-295 CNS
  TGI: > 100 µM
HOP-62 NSCLC
  TGI: > 100 µM
SK-MEL-2 melanoma
  TGI: > 100 µM
HCC-2998 colon
  TGI: > 100 µM
MDA-N
  TGI: > 100 µM
BT-549 breast
  TGI: > 100 µM
EKVX NSCLC
  TGI: > 100 µM

## CCN(CC)Cc1ccc(C(=S)Nc2ccc(Cl)cc2)s1
CAKI-1 renal
  TGI: 26.2 µM
DU-145 prostate
  TGI: 29.7 µM
NCI-H23 lung
  TGI: 9.34 µM
UACC-257 melanoma
  TGI: 18.1 µM
SF-295 CNS
  TGI: 25.2 µM
HOP-62 NSCLC
  TGI: 32.1 µM
SK-MEL-2 melanoma
  TGI: 32.1 µM
HCC-2998 colon
  TGI: 26 µM
MDA-N
  TGI: 23.6 µM
BT-549 breast
  TGI: 19.7 µM
EKVX NSCLC
  TGI: 19.4 µM

## CO/N=C(\C(=O)OC(=NC1CCCCC1)NC1CCCCC1)c1csc(NC(c2ccccc2)(c2ccccc2)c2ccccc2)n1
CAKI-1 renal
  TGI: > 10 µM
DU-145 prostate
  TGI: > 10 µM
NCI-H23 lung
  TGI: > 10 µM
UACC-257 melanoma
  TGI: > 10 µM
SF-295 CNS
  TGI: > 10 µM
HOP-62 NSCLC
  TGI: > 10 µM
SK-MEL-2 melanoma
  TGI: > 10 µM
HCC-2998 colon
  TGI: > 10 µM
MDA-N
  TGI: > 10 µM
BT-549 breast
  TGI: > 10 µM
EKVX NSCLC
  TGI: > 10 µM

## NS(=O)(=O)c1ccc(/C=C/c2ccc(O)c(O)c2)cc1
CAKI-1 renal
  GI50: 29.1 µM
  TGI: > 100 µM
DU-145 prostate
  TGI: > 100 µM
NCI-H23 lung
  GI50: 25.9 µM
  TGI: 79.3 µM
UACC-257 melanoma
  TGI: > 100 µM
SF-295 CNS
  TGI: 74.3 µM
HOP-62 NSCLC
  TGI: > 100 µM
SK-MEL-2 melanoma
  TGI: 62.8 µM
HCC-2998 colon
  TGI: 41.7 µM
MDA-N
  TGI: 65.7 µM
BT-549 breast
  GI50: 4.13 µM
  TGI: 27.1 µM
EKVX NSCLC
  TGI: 64 µM

## N#Cc1n[nH]n(-c2ccc(Br)cc2)c1=O
CAKI-1 renal
  TGI: > 100 µM
DU-145 prostate
  TGI: > 100 µM
NCI-H23 lung
  TGI: > 100 µM
UACC-257 melanoma
  TGI: > 100 µM
SF-295 CNS
  TGI: > 100 µM
HOP-62 NSCLC
  TGI: > 100 µM
SK-MEL-2 melanoma
  TGI: > 100 µM
HCC-2998 colon
  TGI: > 100 µM
MDA-N
  TGI: > 100 µM
BT-549 breast
  TGI: > 100 µM
EKVX NSCLC
  TGI: > 100 µM

## C[C@H]1[C@H]2[C@H]3CC[C@@H]4[C@@]5(C)CC[C@H](O)C(C)(C)[C@@H]5CC[C@@]4(C)[C@]3(C)C[C@H](O)[C@@]2(C)C[C@H]2O[C@]21C
CAKI-1 renal
  TGI: 69.8 µM
DU-145 prostate
  TGI: 31.5 µM
NCI-H23 lung
  TGI: 40.3 µM
UACC-257 melanoma
  TGI: 39.4 µM
SF-295 CNS
  TGI: 37.4 µM
HOP-62 NSCLC
  TGI: 57.7 µM
SK-MEL-2 melanoma
  TGI: 41.2 µM
HCC-2998 colon
  TGI: 37.4 µM
MDA-N
  TGI: 46.5 µM
BT-549 breast
  TGI: 41.5 µM
EKVX NSCLC
  TGI: 73.9 µM

## CC1(C)OC(C(=O)Nc2cc3c4ccccc4ccc3c3ccccc23)C(C(=O)N2CCCCC2)O1 (configuration not stated)
CAKI-1 renal
  TGI: > 54.6 µM
DU-145 prostate
  TGI: > 100 µM
NCI-H23 lung
  TGI: > 100 µM
UACC-257 melanoma
  TGI: > 100 µM
SF-295 CNS
  TGI: > 100 µM
HOP-62 NSCLC
  TGI: > 100 µM
SK-MEL-2 melanoma
  TGI: > 100 µM
HCC-2998 colon
  TGI: > 100 µM
MDA-N
  TGI: > 100 µM
BT-549 breast
  TGI: > 100 µM
EKVX NSCLC
  TGI: > 100 µM

## CC(C)NC(=O)OCc1c(COC(=O)NC(C)C)c(-c2cc[n+](COC(=O)C3CC3)cc2)n2c1CCC2
CAKI-1 renal
  TGI: > 100 µM
DU-145 prostate
  TGI: > 100 µM
NCI-H23 lung
  TGI: > 100 µM
UACC-257 melanoma
  TGI: > 100 µM
SF-295 CNS
  TGI: > 100 µM
HOP-62 NSCLC
  TGI: > 100 µM
SK-MEL-2 melanoma
  TGI: > 100 µM
HCC-2998 colon
  TGI: > 100 µM
MDA-N
  TGI: > 100 µM
BT-549 breast
  TGI: > 100 µM
EKVX NSCLC
  TGI: > 100 µM

## C=C(Cl)C(=CCl)CCC(Br)C(C)(C)Cl (mixture of isomers)
CAKI-1 renal
  TGI: > 10 µM
DU-145 prostate
  TGI: > 10 µM
NCI-H23 lung
  TGI: > 10 µM
UACC-257 melanoma
  TGI: > 10 µM
SF-295 CNS
  TGI: > 10 µM
HOP-62 NSCLC
  TGI: > 10 µM
SK-MEL-2 melanoma
  TGI: > 10 µM
HCC-2998 colon
  TGI: > 10 µM
MDA-N
  TGI: > 10 µM
BT-549 breast
  TGI: > 10 µM
EKVX NSCLC
  TGI: > 10 µM

Source: PubChem BioAssay (NCI)
